Source: patent US4032525A, “Dibenz[b,f]oxepin derivatives” (Hoffmann-La Roche Inc., priority 1974, dated 1977)

System: not listed separately
Test: in vivo
Conditions: mouse, po
With `Cc1ccc2c(c1)CC(N1CCN(C)CC1)c1cc(C)ccc1O2` (stereo not drawn) [A] the LD50 at 24 h was 900 mg/kg. In the case of `OCCCN1CCN(C2Cc3cc(Cl)ccc3Oc3ccccc32)CC1` (stereo not drawn) [B], the LD50 at 24 h is reported as 375 mg/kg. Work on `O=C1OCCN1CCN1CCN(C2Cc3cc(Cl)ccc3Oc3ccc(Cl)cc32)CC1` (stereo not drawn) [C] yielded an LD50 at 24 h of 900 mg/kg. With `Cc1ccc2c(c1)CC(N1CCN(CCN3CCOC3=O)CC1)c1cc(C)ccc1O2` (stereo not drawn) [D] the LD50 at 24 h was 750 mg/kg. `O=C1OCCN1CCN1CCN(C2Cc3cc(Cl)ccc3Oc3ccc(F)cc32)CC1` (stereo not drawn) [E] showed an LD50 at 24 h of 900 mg/kg. `Cc1ccc2c(c1)CC(N1CCN(CCN3CCOC3=O)CC1)c1cc(F)ccc1O2` (stereo not drawn) [F] showed an LD50 at 24 h of 450 mg/kg. In the case of `O=C1OCCN1CCN1CCN(C2Cc3cc(Cl)ccc3Oc3ccccc32)CC1` (stereo not drawn) [G], the LD50 at 24 h is reported as 450 mg/kg. Work on `N#CCCN1CCN(C2Cc3cc(Cl)ccc3Oc3ccccc32)CC1` (stereo not drawn) [H] yielded an LD50 at 24 h of 1500 mg/kg.

System: not listed separately
Test: Catalepsy Test
Format: in vivo, rats
Conditions: rat, in vivo, ip; rats, intraperitoneally; observed every 30 minutes for 6 hours; read-out: ED50 (dose at which 50% of the animals show catalepsy)
Procedure: (§1) A cataleptic activity-- "wax rigidity", i.e., abnormally long retention of a fixed body position--in central depressant or neuroleptically active compounds is considered to be an undesirable side-effect and is produced by motor disorders. Representative dibenz[b,f]oxepin derivatives provided by this invention were administered intraperitoneally to rats. The animals are considered to be cataleptic when the homolateral extremities remain in a crossed position for at least 10 seconds. The number of cataleptic animals is noted every 30 minutes for 6 hours. The ED50 is the dose at which 50% of the animals show catalepsy.
`CN(C)CCCN1c2ccccc2Sc2ccc(Cl)cc21` [Chlorpromazine, reference compound] gave an ED50 at 6 h of 6 mg/kg. Work on `Cc1ccc2c(c1)CC(N1CCN(CCN3CCOC3=O)CC1)c1cc(C)ccc1O2` (stereo not drawn) [D] yielded an ED50 at 6 h of 14 mg/kg. `Cc1ccc2c(c1)CC(N1CCN(CCN3CCOC3=O)CC1)c1cc(F)ccc1O2` (stereo not drawn) [F] gave an ED50 at 6 h of 30 mg/kg. For `O=C1OCCN1CCN1CCN(C2Cc3cc(Cl)ccc3Oc3ccccc32)CC1` (stereo not drawn) [G], the ED50 at 6 h was 50 mg/kg. Compound `N#CCCN1CCN(C2Cc3cc(Cl)ccc3Oc3ccccc32)CC1` (stereo not drawn) [H] has an ED50 at 6 h of over 30 mg/kg.

System: rats
Test: Catalepsy Test
Format: in vivo
Conditions: in words, relative to chlorpromazine
Procedure: as §1
With `Cc1ccc2c(c1)CC(N1CCN(CCN3CCOC3=O)CC1)c1cc(C)ccc1O2` (stereo not drawn) [D] the “cataleptic side-effect compared with chlorpromazine” value was “about one half to about one eighth of the undesired cataleptic side-effect of chlorpromazine”. In the case of `Cc1ccc2c(c1)CC(N1CCN(CCN3CCOC3=O)CC1)c1cc(F)ccc1O2` (stereo not drawn) [F], the “cataleptic side-effect compared with chlorpromazine” value is reported as “about one half to about one eighth of the undesired cataleptic side-effect of chlorpromazine”. For `O=C1OCCN1CCN1CCN(C2Cc3cc(Cl)ccc3Oc3ccccc32)CC1` (stereo not drawn) [G], the “cataleptic side-effect compared with chlorpromazine” value was “about one half to about one eighth of the undesired cataleptic side-effect of chlorpromazine”. With `N#CCCN1CCN(C2Cc3cc(Cl)ccc3Oc3ccccc32)CC1` (stereo not drawn) [H] the “cataleptic side-effect compared with chlorpromazine” value was “less than one fifth of the undesired cataleptic side-effect of chlorpromazine”.

System: homovanillic acid
Test: Determination of Homovanillic Acid (HVA) in rat brain
Format: in vivo, rats
Conditions: po, 2 h, dose 2 mg/kg p.o., rats killed two hours after dosing, untreated rats fixed at 100%, read-out: Increase in HVA
For `Cc1ccc2c(c1)CC(N1CCN(C)CC1)c1cc(C)ccc1O2` (stereo not drawn) [A], the response vs control in vivo at 2 mg/kg was 235%.

Same assay, conditions: po, 2 h, dose 3.5 mg/kg p.o., rats killed two hours after dosing, untreated rats fixed at 100%, read-out: Increase in HVA
In the case of `OCCCN1CCN(C2Cc3cc(Cl)ccc3Oc3ccccc32)CC1` (stereo not drawn) [B], the response vs control in vivo at 3.5 mg/kg is reported as 260%.

Same assay, conditions: po, 2 h, dose 5 mg/kg p.o., rats killed two hours after dosing, untreated rats fixed at 100%, read-out: Increase in HVA
Work on `O=C1OCCN1CCN1CCN(C2Cc3cc(Cl)ccc3Oc3ccc(Cl)cc32)CC1` (stereo not drawn) [C] yielded a response vs control in vivo at 5 mg/kg of 365%.

Same assay, conditions: po, 2 h, dose 10 mg/kg p.o., rats killed two hours after dosing, untreated rats fixed at 100%, read-out: Increase in HVA
With `O=C1OCCN1CCN1CCN(C2Cc3cc(Cl)ccc3Oc3ccc(F)cc32)CC1` (stereo not drawn) [E] the response vs control in vivo at 10 mg/kg was 260%.

Same assay, conditions: po, 2 h, dose 15 mg/kg p.o., rats killed two hours after dosing, untreated rats fixed at 100%, read-out: Increase in HVA
In the case of `Cc1ccc2c(c1)CC(N1CCN(CCN3CCOC3=O)CC1)c1cc(C)ccc1O2` (stereo not drawn) [D], the response vs control in vivo at 15 mg/kg is reported as 335%.

Same assay, conditions: po, 2 h, dose 50 mg/kg p.o., rats killed two hours after dosing, untreated rats fixed at 100%, read-out: Increase in HVA
`Cc1ccc2c(c1)CC(N1CCN(CCN3CCOC3=O)CC1)c1cc(F)ccc1O2` (stereo not drawn) [F] gave a response vs control in vivo at 50 mg/kg of 265%. `O=C1OCCN1CCN1CCN(C2Cc3cc(Cl)ccc3Oc3ccccc32)CC1` (stereo not drawn) [G] gave a response vs control in vivo at 50 mg/kg of 225%. For `N#CCCN1CCN(C2Cc3cc(Cl)ccc3Oc3ccccc32)CC1` (stereo not drawn) [H], the response vs control in vivo at 50 mg/kg was 275%.

Same assay, conditions: po, 2 h, read-out: Increase in HVA
Compound `CN(C)CCCN1c2ccccc2Sc2ccc(Cl)cc21` [Chlorpromazine, reference compound] has a response vs control in vivo at 20 mg/kg of 320%.

System: rats
Test: "Pole Climbing" Test (conditioned / unconditioned reaction)
Format: in vivo
Conditions: Rattus norvegicus, po; rats, p.o.; read-out: ED50 (blocking of the conditioned reaction)
Excerpt: II. "Pole Climbing" Test This test provides information about behavior reactions of rats. Rats are trained to avoid, by climbing up a vertical pole in the test chamber, an electrical impulse-- unconditioned impulse-- released via the […] floor some seconds after an acoustic signal-- conditioned impulse. The blocking of the conditioned reaction is designated by the parameter ED50 (mg/kg. p.o.) and the blocking of the unconditioned reaction is designated by the parameter ED10 (mg/kg. p.o.). The parameter ED50 --blocking of the conditioned reaction-- provides a measure of the strength of the neuroleptic activity of the derivative under investigation.
Work on `Cc1ccc2c(c1)CC(N1CCN(C)CC1)c1cc(C)ccc1O2` (stereo not drawn) [A] yielded an ED50 of 3.2 mg/kg. Work on `Cc1ccc2c(c1)CC(N1CCN(CCN3CCOC3=O)CC1)c1cc(C)ccc1O2` (stereo not drawn) [D] yielded an ED50 of 7.6 mg/kg. Work on `O=C1OCCN1CCN1CCN(C2Cc3cc(Cl)ccc3Oc3ccc(F)cc32)CC1` (stereo not drawn) [E] yielded an ED50 of 3.5 mg/kg. Work on `Cc1ccc2c(c1)CC(N1CCN(CCN3CCOC3=O)CC1)c1cc(F)ccc1O2` (stereo not drawn) [F] yielded an ED50 of 7 mg/kg. Work on `O=C1OCCN1CCN1CCN(C2Cc3cc(Cl)ccc3Oc3ccccc32)CC1` (stereo not drawn) [G] yielded an ED50 of 15.5 mg/kg. `N#CCCN1CCN(C2Cc3cc(Cl)ccc3Oc3ccccc32)CC1` (stereo not drawn) [H] showed an ED50 of 14 mg/kg.

Same assay, conditions: in words, relative to chlorpromazine
For `O=C1OCCN1CCN1CCN(C2Cc3cc(Cl)ccc3Oc3ccccc32)CC1` (stereo not drawn) [G], the “neuroleptic strength of action compared with chlorpromazine” value was “somewhat lower than that of chlorpromazine”. With `N#CCCN1CCN(C2Cc3cc(Cl)ccc3Oc3ccccc32)CC1` (stereo not drawn) [H] the “neuroleptic strength of action compared with chlorpromazine” value was “somewhat lower than that of chlorpromazine” and the “quality (selectivity) of the neuroleptic activity compared with chlorpromazine” value was “this superiority is particularly evident”.

Same assay, conditions: rats, p.o.; larger quotient = greater selectivity of neuroleptic activity
With `Cc1ccc2c(c1)CC(N1CCN(C)CC1)c1cc(C)ccc1O2` (stereo not drawn) [A] the “Quotient ED10 (blocking of the unconditioned reaction)/ED50 (blocking of the conditioned reaction)” value (“Quotient ED10” for short) was 3.1. For `CN(C)CCCN1c2ccccc2Sc2ccc(Cl)cc21` [Chlorpromazine, reference compound], the “Quotient ED10” value was 2.5. In the case of `Cc1ccc2c(c1)CC(N1CCN(CCN3CCOC3=O)CC1)c1cc(C)ccc1O2` (stereo not drawn) [D], the “Quotient ED10” value is reported as 5.6. With `O=C1OCCN1CCN1CCN(C2Cc3cc(Cl)ccc3Oc3ccc(F)cc32)CC1` (stereo not drawn) [E] the “Quotient ED10” value was 2.8. With `Cc1ccc2c(c1)CC(N1CCN(CCN3CCOC3=O)CC1)c1cc(F)ccc1O2` (stereo not drawn) [F] the “Quotient ED10” value was 5.1. With `O=C1OCCN1CCN1CCN(C2Cc3cc(Cl)ccc3Oc3ccccc32)CC1` (stereo not drawn) [G] the “Quotient ED10” value was 3.5. For `N#CCCN1CCN(C2Cc3cc(Cl)ccc3Oc3ccccc32)CC1` (stereo not drawn) [H], the “Quotient ED10” value was over 21.
